Source: patent US20050026899A1, “Metabolite” (priority 2003, published 2005)

Experiments:
Parameters in all cases: species or system Mice
dopamine D2 receptor = target: T1, dopamine D2 receptor (Mus musculus, UniProt P61168); experiment: binding affinity for dopamine D2 receptor
T1 construct: serotonin (5-HT2) receptors relative to dopamine (D2) receptors in the brain; from tissue; host or cells: brain (rodent)
Excerpt: (§1) An assessment of dopamine antagonism was made in rodent models. The methods and procedures used can be found in J. Med. Chem., 44 (3), 372-389, 2001 and are incorporated herein by reference. […] It is this combination of serotonin and dopamine receptor antagonism, with higher relative 5-HT2 to D2 receptor affinity that indicates the compound of Formula I as a potent atypical antipsychotic. J. Goldstein, Quetiapine Fumarate (Seroquel): a new atypical antipsychotic, 35(3) Drugs of Today 193-210 (1999). […] Low potency at the D2 receptor is considered advantageous since it a characteristic shared with Clozapine.

[1] = target: T2, brain serotonin 5-HT2 receptor (Mus musculus, UniProt P35363); experiment: binding affinity for brain serotonin 5-HT2 receptor
T2 construct: from tissue; host or cells: brain (rodent)
Excerpt: as §1

dopamine D1 receptor = target: T3, dopamine D1 receptor (Mus musculus, UniProt Q61616); experiment: binding affinity for dopamine D1 receptor; conditions: tested as the dihydrochloride salt; read-out: binding affinity for dopamine D1 receptor (K1)
T3 construct: from tissue
Excerpt: as §1

T1 sequence (P61168 whole entry): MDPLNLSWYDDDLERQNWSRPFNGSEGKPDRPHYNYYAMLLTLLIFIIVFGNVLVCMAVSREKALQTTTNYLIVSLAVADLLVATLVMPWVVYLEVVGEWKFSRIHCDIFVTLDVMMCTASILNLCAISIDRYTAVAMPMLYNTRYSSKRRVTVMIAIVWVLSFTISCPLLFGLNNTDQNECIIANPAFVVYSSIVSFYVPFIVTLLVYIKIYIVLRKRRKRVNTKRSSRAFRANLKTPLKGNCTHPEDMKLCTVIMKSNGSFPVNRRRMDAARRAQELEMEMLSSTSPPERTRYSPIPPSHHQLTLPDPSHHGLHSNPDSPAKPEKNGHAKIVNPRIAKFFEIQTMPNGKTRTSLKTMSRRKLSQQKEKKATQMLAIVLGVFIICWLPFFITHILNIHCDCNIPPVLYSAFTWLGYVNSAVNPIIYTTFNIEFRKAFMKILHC
T2 sequence (P35363 whole entry): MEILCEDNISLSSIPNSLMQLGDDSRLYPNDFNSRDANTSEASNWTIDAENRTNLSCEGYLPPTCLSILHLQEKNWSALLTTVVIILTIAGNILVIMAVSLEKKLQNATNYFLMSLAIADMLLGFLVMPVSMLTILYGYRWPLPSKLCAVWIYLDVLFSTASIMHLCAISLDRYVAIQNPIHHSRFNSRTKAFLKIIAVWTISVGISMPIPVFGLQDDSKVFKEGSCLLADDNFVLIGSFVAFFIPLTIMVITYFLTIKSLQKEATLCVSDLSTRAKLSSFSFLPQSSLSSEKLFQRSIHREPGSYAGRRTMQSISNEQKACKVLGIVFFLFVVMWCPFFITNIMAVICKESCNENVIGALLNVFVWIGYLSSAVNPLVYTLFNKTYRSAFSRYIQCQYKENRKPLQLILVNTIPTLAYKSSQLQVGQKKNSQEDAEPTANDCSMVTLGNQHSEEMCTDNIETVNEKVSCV
T3 sequence (Q61616 whole entry): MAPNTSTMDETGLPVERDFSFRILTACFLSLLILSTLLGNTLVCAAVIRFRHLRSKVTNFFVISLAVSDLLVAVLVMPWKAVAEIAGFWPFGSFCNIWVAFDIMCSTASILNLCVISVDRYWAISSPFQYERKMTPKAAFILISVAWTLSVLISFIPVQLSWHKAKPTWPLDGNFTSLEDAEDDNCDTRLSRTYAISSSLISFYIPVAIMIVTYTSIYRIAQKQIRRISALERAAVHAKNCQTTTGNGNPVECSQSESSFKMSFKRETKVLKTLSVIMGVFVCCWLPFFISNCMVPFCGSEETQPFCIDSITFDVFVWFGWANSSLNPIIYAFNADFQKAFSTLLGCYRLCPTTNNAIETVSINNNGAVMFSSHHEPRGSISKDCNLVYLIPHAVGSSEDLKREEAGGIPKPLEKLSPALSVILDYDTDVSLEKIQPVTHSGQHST

Oc1ccc2c(c1)Sc1ccccc1C(N1CCNCC1)=N2 [Formula I, 11-piperazin-1-yldibenzo[b,f][1,4]thiazepin-7-ol]
affinity for D2 (in words) (dopamine D2 receptor): moderate affinity | Ki (dopamine D2 receptor; tested as the dihydrochloride salt, read-out: binding affinity for dopamine D2 receptor (K1)): 35 nM | affinity for serotonin (5-HT2) receptors relative to dopamine (D2) receptors in the brain ([1]; as the dihydrochloride salt, 5-HT2 versus D2): higher affinity | Ki ([1]; tested as the dihydrochloride salt, brain receptor, read-out: binding affinity for brain serotonin 5-HT2 receptor (K1)): 6.5 nM | Ki (dopamine D1 receptor): 288 nM
